Reference: ChEMBL document CHEMBL4699511, “Cedrol, a Sesquiterpene Alcohol, Enhances the Anticancer Efficacy of Temozolomide in Attenuating Drug Resistance via Regulation of the DNA Damage Response and MGMT Expression” (J Nat Prod, 2020)
The source made the active and inactive calls. The rule behind the calls is not given here.

How the values were obtained:
RG2 [1] = test: Induction of cell cycle arrest in rat RG2 cells assessed as CyclinA expression at 206 uM after 48 hrs by Western blot analysis (reference value: 1); type: functional
DBTRG-05MG [2] = test: Inhibition of JNK phosphorylation at Thr183/Tyr185 residues in human DBTRG-05MG cells at 206 uM after 48 hrs by Western blot analysis (reference value: 1); type: cell-based
DBTRG-05MG [3] = test: Induction of cell cycle arrest in human DBTRG-05MG cells assessed as CDK4 expression at 206 uM after 48 hrs by Western blot analysis (reference value: 1); type: functional
RG2 [4] = test: Induction of cell cycle arrest in rat RG2 cells assessed as accumulation at S phase at 206 uM after 24 hrs by propidium iodide staining based flow cytometric analysis (reference value: 20.15 +/- 2.44%); type: functional
RG2 [5] = test: Induction of cell cycle arrest in rat RG2 cells assessed as CyclinD1 expression at 206 uM after 48 hrs by Western blot analysis (reference value: 1); type: functional
DBTRG-05MG [6] = test: Induction of apoptosis in human DBTRG-05MG cells assessed as Bcl2 expression at 206 uM after 48 hrs by Western blot analysis (reference value: 1); type: functional
DBTRG-05MG [7] = test: Induction of apoptosis in human DBTRG-05MG cells assessed as increase in apoptotic body formation at 112.4 uM after 48 hrs in presence of TMZ by TUNEL assay; type: functional, cell-based
[8] = Effect on AKT expression in human DBTRG-05MG cells at 112.4uM after 48 hrs in presence of TMZ by Western blot analysis (reference value: 1); type: functional
DBTRG-05MG [9] = test: Induction of apoptosis in human DBTRG-05MG cells assessed as cleaved PARP expression at 112.4 uM after 48 hrs in presence of TMZ by Western blot analysis (reference value: 1); type: functional
DBTRG-05MG [10] = test: Induction of apoptosis in human DBTRG-05MG cells assessed as cleaved caspace-3 expression at 112.4 uM after 48 hrs by Western blot analysis (reference value: 1); type: functional
DBTRG-05MG [11] = test: Induction of apoptosis in human DBTRG-05MG cells assessed as Bax expression at 112.4 uM after 48 hrs in presence of TMZ by Western blot analysis (reference value: 1); type: functional
DBTRG-05MG [12] = test: Synergistic cytotoxicity against human DBTRG-05MG cells assessed as synergistic effect index at 134.9 uM after 48 hrs in presence of 412.1 uM TMZ by MTT assay; type: functional
RG2 [13] = test: Inhibition of p38 phosphorylation at Tyr182 residues in rat RG2 cells at 112.4uM after 48 hrs by Western blot analysis (reference value: 1); type: cell-based
RG2 [14] = test: Induction of cell cycle arrest in rat RG2 cells assessed as CDK2 expression at 112.4uM after 48 hrs by Western blot analysis (reference value: 1); type: functional
[15] = Synergistic cytotoxicity against rat CTX TNA2 cells assessed as combination index at 112.4 uM after 48 hrs in presence of 515.1 uM TMZ by MTT assay; type: cell-based; conditions: ctx tna2, 48 h
[16] = Inhibition of TMZ-induced drug resistance in human DBTRG-05MG cells assessed as CD133 expression at 112.4 uM after 48 hrs by Western blot analysis (reference value: 2.3); type: functional
RG2 [17] = test: Synergistic cytotoxicity against rat RG2 cells assessed as combination index at 89.9 uM after 48 hrs in presence of 309 uM TMZ by MTT assay; type: functional
[18] = Toxicity in BALB/c mouse xenografted with DBTRG-05MG cells assessed as reduction in body weight at 75 mg/kg, sc for every 2 days for 20 days; type: organism-based; conditions: in vivo, 480 h, time 20 day
DBTRG-05MG [19] = test: Induction of cell cycle arrest in human DBTRG-05MG cells assessed as accumulation at G2/M phase at 112.4 uM after 48 hrs in presence of TMZ by propidium iodide staining based flow cytometric analysis (reference value: 30.08 +/- 0.1%); type: functional
RG2 [20] = test: Induction of cell cycle arrest in rat RG2 cells assessed as CDK4 expression at 112.4 uM after 48 hrs by Western blot analysis (reference value: 1); type: functional
DBTRG-05MG [21] = test: Induction of cell cycle arrest in human DBTRG-05MG cells assessed as CyclinB1 expression at 112.4 uM after 48 hrs by Western blot analysis (reference value: 1); type: functional
[22] = Toxicity in BALB/c mouse xenografted with DBTRG-05MG cells assessed as inflammatory cell infiltration score in liver at 75 mg/kg, sc co-treated with TMZ for 18 days by H and E staining-based bright field microscopic analysis; type: organism-based; conditions: in vivo, 432 h, time 18 day
RG2 [23] = test: Induction of DNA damage in rat RG2 cells assessed as Chk1 phosphorylation at ser345 at 112.4 uM after 48 hrs by Western blot analysis (reference value: 1); type: functional
DBTRG-05MG [24] = test: Induction of cell cycle arrest in human DBTRG-05MG cells assessed as p21 expression at 112.4 uM after 48 hrs by Western blot analysis (reference value: 1); type: functional
RG2 [25] = test: Induction of cell cycle arrest in rat RG2 cells assessed as accumulation at G0/G1 phase at 112.4 uM after 24 hrs in presence of TMZ by propidium iodide staining based flow cytometric analysis (reference value: 57.81 +/- 1.9%); type: functional
RG2 [26] = test: Induction of cell cycle arrest in rat RG2 cells assessed as CyclinB1 expression at 112.4 uM after 48 hrs by Western blot analysis (reference value: 1); type: functional
RG2 [27] = test: Induction of cell cycle arrest in rat RG2 cells assessed as accumulation at S phase at 112.4 uM after 24 hrs in presence of TMZ by propidium iodide staining based flow cytometric analysis (reference value: 20.15 +/- 2.44%); type: functional
DBTRG-05MG [28] = test: Induction of DNA damage in human DBTRG-05MG cells assessed as H2A.X phosphorylation at ser139 residues at 112.4 uM after 48 hrs by Western blot analysis (reference value: 1); type: functional
DBTRG-05MG [29] = test: Inhibition of TMZ-induced drug resistance in human DBTRG-05MG cells assessed as reduction in MGMT protein expression at 112.4 uM after 48 hrs by Immunohistochemistry method; type: functional, cell-based
[30] = Effect on AKT expression in human DBTRG-05MG cells at 112.4uM after 48 hrs by Western blot analysis (reference value: 1); type: functional
RG2 [31] = test: Synergistic cytotoxicity against rat RG2 cells assessed as combination index at 134.9 uM after 48 hrs in presence of 103 uM TMZ by MTT assay; type: functional
DBTRG-05MG [32] = test: Synergistic cytotoxicity against human DBTRG-05MG cells assessed as synergistic effect index at 134.9 uM after 48 hrs in presence of 309 uM TMZ by MTT assay; type: functional
DBTRG-05MG [33] = test: Induction of cell cycle arrest in human DBTRG-05MG cells assessed as accumulation at G0/G1 phase at 112.4 uM after 12 hrs by propidium iodide staining based flow cytometric analysis (reference value: 47.16 +/- 1.55%); type: functional
RG2 [34] = test: Synergistic cytotoxicity against rat RG2 cells assessed as combination index at 134.9 uM after 48 hrs in presence of 309 uM TMZ by MTT assay; type: functional

Cn1nnc2c(C(N)=O)ncn2c1=O [TEMOZOLOMIDE]
fold change (FC) (RG2 [1]): 1.9 | fold change (FC) (DBTRG-05MG [2]): 1.2 | fold change (FC) (DBTRG-05MG [3]): 0.7 | Activity (RG2 [4]): 15.48% | fold change (FC) (RG2 [5]): 1 | fold change (FC) (DBTRG-05MG [6]): 1.3

C[C@@H]1CC[C@H]2C(C)(C)[C@H]3C[C@@]12CC[C@@]3(C)O [CEDROL]
Activity (DBTRG-05MG [7]): Active | fold change (FC) [8]: 0.6 | fold change (FC) (DBTRG-05MG [9]): 1.9 | fold change (FC) (DBTRG-05MG [10]): 2.2 | fold change (FC) (DBTRG-05MG [11]): 1.7 | Activity_index (DBTRG-05MG [12]): 0.9 | fold change (FC) (RG2 [13]): 1.3 | fold change (FC) (RG2 [14]): 0.7 | CI [15]: 0.87 | fold change (FC) [16]: 1.5 | CI (RG2 [17]): 1.04 | Activity [18]: Non-Toxic | Activity (DBTRG-05MG [19]): 38.26% | fold change (FC) (RG2 [20]): 0.8 | fold change (FC) (DBTRG-05MG [21]): 0.5 | Activity [22]: 1.23 | fold change (FC) (RG2 [23]): 1.1 | fold change (FC) (DBTRG-05MG [24]): 1.1 | Activity (RG2 [25]): 61.35% | fold change (FC) (RG2 [26]): 0.5 | Activity (RG2 [27]): 11.96% | fold change (FC) (DBTRG-05MG [28]): 0.9 | inhibition (DBTRG-05MG [29]): Active | fold change (FC) [30]: 0.9 | CI (RG2 [31]): 0.83 | Activity_index (DBTRG-05MG [32]): 0.89 | Activity (DBTRG-05MG [33]): 54.65% | CI (RG2 [34]): 0.92
